According to patent US20080009418A1, “Selective Inhibitors” (Alchemia LTD., priority 2004, published 2008):

Tests used:
Human δ-opioid (DOP) = biological target: T1, Human δ-opioid (DOP) (Homo sapiens, UniProt P41143); assay: Radioligand binding, human δ-opioid (DOP) membranes, FlashPlate, [3H]-Bremazocine; conditions: compound at 10 μM; for A1 radioligand binding inhibition: human δ-opioid (DOP) membranes
T1 construct: purchased Perkin Elmer Biosignal
Summary of the method: (§1)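 Cloned human receptor membranes were coated onto FlashPlate wells and incubated with radioligand and compound (added from a 0.5 mM DMSO daughter plate) for 1 hour at room temperature in the dark. Scintillation counting gave percent inhibition, with DMSO defining total and reference ligand defining non-specific binding.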

Human κ-Opioid (KOP) = biological target: T2, Human κ-Opioid (KOP) (Homo sapiens, UniProt P41145); assay: Radioligand binding, human κ-opioid (KOP) membranes, filtration, [3H]-Diprenorphine; conditions: compound at 10 μM; for A2 radioligand binding inhibition: human κ-opioid (KOP) membranes
T2 construct: purchased Perkin Elmer Biosignal
T2 sequence (P41145 whole entry): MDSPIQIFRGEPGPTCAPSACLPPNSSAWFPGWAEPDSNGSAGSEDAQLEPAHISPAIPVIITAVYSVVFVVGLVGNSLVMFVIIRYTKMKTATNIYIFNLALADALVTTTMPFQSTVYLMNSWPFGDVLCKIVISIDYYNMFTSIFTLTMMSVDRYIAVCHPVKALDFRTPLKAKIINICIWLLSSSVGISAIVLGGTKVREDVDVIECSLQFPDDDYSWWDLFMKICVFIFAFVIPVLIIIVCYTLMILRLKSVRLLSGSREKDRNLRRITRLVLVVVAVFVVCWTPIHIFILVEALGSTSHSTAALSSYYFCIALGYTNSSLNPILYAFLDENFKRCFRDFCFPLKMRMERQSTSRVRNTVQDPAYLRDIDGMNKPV
Summary of the method: (§2)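 Filtration binding on cloned human receptor membranes (1 Unit/well), [125I]-Substance P for NK1 and [3H]-Diprenorphine for KOP, 1 h at room temperature. Filters PEI-presoaked, washed with cold 50 mM Tris-HCl pH 7.4, counted by scintillation; percent inhibition calculated, reference ligand defining non-specific binding.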

Human Melanocortin (MC3) = biological target: T3, Human Melanocortin (MC3) (Homo sapiens, UniProt P41968); assay: Radioligand binding, human melanocortin MC3 membranes, FlashPlate, [125I]-NDP-αMSH; conditions: compound at 10 μM; for A3 radioligand binding inhibition: human melanocortin MC3 membranes
T3 construct: purchased Perkin Elmer Biosignal
T3 sequence (P41968 whole entry): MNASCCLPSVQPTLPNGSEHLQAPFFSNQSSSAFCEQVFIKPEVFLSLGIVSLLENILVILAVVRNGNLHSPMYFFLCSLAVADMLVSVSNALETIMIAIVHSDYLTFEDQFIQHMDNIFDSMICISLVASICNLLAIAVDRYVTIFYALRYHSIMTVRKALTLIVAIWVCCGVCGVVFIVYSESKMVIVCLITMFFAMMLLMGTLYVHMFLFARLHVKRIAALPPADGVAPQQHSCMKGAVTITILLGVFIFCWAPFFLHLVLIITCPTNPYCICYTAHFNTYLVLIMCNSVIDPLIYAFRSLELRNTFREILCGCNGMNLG
Summary of the method: as §1

Human Melanocortin (MC4) = biological target: T4, Human Melanocortin (MC4) (Homo sapiens, UniProt P32245); assay: Radioligand binding, human melanocortin MC4 membranes, FlashPlate, [125I]-NDP-αMSH; conditions: compound at 10 μM; for A4 radioligand binding inhibition: human melanocortin MC4 membranes
T4 construct: purchased Perkin Elmer Biosignal
T4 sequence (P32245 whole entry): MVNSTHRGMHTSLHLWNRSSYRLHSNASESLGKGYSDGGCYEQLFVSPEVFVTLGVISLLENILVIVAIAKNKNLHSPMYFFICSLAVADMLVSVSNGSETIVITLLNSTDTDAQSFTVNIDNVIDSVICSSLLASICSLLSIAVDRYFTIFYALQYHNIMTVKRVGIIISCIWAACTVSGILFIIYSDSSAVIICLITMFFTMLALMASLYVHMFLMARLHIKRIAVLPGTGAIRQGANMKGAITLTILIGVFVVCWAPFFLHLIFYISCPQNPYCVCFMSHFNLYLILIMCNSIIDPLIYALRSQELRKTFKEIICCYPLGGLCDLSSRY
Summary of the method: as §1

Human melanocortin (MC5) = biological target: T5, Human melanocortin (MC5) (Homo sapiens, UniProt P33032); assay: Radioligand binding, human melanocortin MC5 membranes, FlashPlate, [125I]-NDP-αMSH; conditions: compound at 10 μM; for A5 radioligand binding inhibition: human melanocortin MC5 membranes
T5 construct: purchased Perkin Elmer Biosignal
T5 sequence (P33032 whole entry): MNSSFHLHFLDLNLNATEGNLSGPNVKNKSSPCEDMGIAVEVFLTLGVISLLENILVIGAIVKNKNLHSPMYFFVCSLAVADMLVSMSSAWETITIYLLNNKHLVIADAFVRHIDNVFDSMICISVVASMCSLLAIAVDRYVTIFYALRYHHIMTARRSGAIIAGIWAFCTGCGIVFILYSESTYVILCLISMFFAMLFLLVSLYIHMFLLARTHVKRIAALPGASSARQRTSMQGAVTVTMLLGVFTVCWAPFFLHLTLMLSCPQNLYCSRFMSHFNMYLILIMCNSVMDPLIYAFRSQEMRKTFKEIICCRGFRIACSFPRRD
Summary of the method: as §1

[1] = biological target: T6, Human melanin-concentrating hormone (MCH1) (Homo sapiens, UniProt Q99705); assay: Radioligand binding, human melanin-concentrating hormone MCH1 membranes, FlashPlate, [125I]-S36057; conditions: compound at 10 μM; for A6 radioligand binding inhibition: human MCH1 membranes
T6 construct: purchased Perkin Elmer Biosignal
T6 sequence (Q99705 whole entry): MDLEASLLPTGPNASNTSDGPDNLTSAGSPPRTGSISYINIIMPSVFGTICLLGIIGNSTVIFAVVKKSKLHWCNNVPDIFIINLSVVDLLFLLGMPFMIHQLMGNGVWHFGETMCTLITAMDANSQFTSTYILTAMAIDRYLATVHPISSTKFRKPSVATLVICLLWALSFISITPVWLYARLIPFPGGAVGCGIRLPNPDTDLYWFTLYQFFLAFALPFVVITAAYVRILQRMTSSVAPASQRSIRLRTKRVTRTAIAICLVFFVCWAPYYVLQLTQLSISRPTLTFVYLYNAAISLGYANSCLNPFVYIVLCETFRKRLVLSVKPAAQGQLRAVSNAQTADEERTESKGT
Summary of the method: as §1

Human μ-opioid (MOP) = biological target: T7, Human μ-opioid (MOP) (Homo sapiens, UniProt P35372); assay: Radioligand binding, human μ-opioid (MOP) membranes, FlashPlate, [3H]-Naloxone; conditions: compound at 10 μM; for A7 radioligand binding inhibition: human μ-opioid (MOP) membranes
T7 construct: purchased Perkin Elmer Biosignal
T7 sequence (P35372 whole entry): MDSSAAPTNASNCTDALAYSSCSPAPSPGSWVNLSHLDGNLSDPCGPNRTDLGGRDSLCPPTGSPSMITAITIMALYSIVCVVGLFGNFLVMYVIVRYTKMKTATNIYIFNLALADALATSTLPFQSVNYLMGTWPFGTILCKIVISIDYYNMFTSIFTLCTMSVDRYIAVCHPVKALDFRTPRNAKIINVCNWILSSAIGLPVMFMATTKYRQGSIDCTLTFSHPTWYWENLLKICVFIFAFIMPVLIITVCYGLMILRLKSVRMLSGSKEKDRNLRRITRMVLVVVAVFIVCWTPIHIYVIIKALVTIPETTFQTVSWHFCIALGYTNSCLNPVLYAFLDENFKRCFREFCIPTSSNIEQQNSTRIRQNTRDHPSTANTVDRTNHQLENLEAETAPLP
Summary of the method: as §1

Human neurokinin (NK1) = biological target: T8, Human neurokinin (NK1) (Homo sapiens, UniProt P25103); assay: Radioligand binding, human neurokinin NK1 membranes, filtration, [125I]-Substance P; conditions: compound at 10 μM; for A8 radioligand binding inhibition: human neurokinin NK1 membranes
T8 construct: purchased Perkin Elmer Biosignal
T8 sequence (P25103 whole entry): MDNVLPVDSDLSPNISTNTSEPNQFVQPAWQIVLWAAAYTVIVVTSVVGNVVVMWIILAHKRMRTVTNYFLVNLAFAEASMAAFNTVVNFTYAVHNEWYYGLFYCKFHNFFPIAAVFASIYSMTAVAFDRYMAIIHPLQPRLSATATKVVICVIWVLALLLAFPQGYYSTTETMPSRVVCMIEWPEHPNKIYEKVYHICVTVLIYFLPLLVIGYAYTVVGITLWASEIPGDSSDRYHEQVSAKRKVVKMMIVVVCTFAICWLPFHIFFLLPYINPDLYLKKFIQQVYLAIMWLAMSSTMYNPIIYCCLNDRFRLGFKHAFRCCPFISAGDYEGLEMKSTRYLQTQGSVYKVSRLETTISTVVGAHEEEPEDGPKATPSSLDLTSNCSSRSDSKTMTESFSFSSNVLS
Summary of the method: as §2

[2] = biological target: T9, Human neuropeptide Y (NPY-Y1) (Homo sapiens, UniProt P25929); assay: Radioligand binding, human neuropeptide Y NPY-Y1 membranes, FlashPlate, [125I]-PYY; conditions: compound at 10 μM; for A9 radioligand binding inhibition: human NPY-Y1 membranes
T9 construct: purchased Perkin Elmer Biosignal
T9 sequence (P25929 1-384): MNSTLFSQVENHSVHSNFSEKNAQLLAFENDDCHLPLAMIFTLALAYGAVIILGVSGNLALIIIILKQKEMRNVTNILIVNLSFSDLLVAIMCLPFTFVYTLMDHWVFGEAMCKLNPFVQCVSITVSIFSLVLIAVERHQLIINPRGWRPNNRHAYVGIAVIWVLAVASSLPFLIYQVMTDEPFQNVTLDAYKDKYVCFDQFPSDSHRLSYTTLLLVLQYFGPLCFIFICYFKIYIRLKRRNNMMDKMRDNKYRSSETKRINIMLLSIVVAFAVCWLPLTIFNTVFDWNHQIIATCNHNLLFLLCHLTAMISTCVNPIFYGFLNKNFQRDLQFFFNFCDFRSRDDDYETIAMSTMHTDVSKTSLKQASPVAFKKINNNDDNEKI
Summary of the method: as §1

Human opioid (ORL1) = biological target: T10, Human opioid (ORL1) (Homo sapiens, UniProt P41146); assay: Radioligand binding, human opioid ORL1 membranes, FlashPlate, [125I]-Nociceptin; conditions: compound at 10 μM; for A10 radioligand binding inhibition: human ORL1 membranes
T10 construct: purchased Perkin Elmer Biosignal
T10 sequence (P41146 whole entry): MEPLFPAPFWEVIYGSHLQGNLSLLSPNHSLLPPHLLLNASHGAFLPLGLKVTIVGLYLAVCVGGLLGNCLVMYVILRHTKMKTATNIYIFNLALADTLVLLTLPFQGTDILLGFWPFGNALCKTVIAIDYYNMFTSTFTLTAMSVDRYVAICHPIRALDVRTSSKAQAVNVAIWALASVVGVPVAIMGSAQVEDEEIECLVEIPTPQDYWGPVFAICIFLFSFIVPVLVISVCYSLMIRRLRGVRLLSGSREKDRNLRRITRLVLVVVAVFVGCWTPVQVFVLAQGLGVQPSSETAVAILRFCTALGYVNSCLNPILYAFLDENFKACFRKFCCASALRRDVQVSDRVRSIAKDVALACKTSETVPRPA
Summary of the method: as §1

Mouse urotensin (mUR2) = biological target: T11, Mouse urotensin (mUR2) (Mus musculus, UniProt Q8VIH9); assay: Radioligand binding, mouse urotensin mUR2 membranes, FlashPlate, [125I]-Urotensin II; conditions: compound at 10 μM; for A11 radioligand binding inhibition: mouse urotensin mUR2 membranes
T11 construct: purchased Perkin Elmer Biosignal
T11 sequence (Q8VIH9 1-385): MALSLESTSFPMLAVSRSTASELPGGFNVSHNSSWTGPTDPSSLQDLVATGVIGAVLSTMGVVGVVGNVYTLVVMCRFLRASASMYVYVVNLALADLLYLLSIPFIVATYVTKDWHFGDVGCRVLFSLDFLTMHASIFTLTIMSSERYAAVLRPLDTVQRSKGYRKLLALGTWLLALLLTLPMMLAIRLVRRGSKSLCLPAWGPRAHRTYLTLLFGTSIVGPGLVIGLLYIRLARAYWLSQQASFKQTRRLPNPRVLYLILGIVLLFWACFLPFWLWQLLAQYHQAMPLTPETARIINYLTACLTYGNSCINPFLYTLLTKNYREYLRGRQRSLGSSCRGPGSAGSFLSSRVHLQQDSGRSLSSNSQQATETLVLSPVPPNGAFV
Summary of the method: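 Cloned mouse urotensin (mUR2) receptor membranes from Perkin Elmer Biosignal were immobilized in FlashPlate microplates using a proprietary coating. Each well got 19.5 μl buffer, then 0.5 μl of DMSO, reference ligand, or compound. Adding 5 μl of [125I]-Urotensin II, diluted to 5× final concentration in binding buffer, started binding. Plates were sealed with TopSeal-A and incubated 1 hour at room temperature in the dark. Wells were counted for 30 seconds each on a TopCount after a 60-second delay, and percentage inhibition was calculated.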

T1 sequence (P41143 whole entry): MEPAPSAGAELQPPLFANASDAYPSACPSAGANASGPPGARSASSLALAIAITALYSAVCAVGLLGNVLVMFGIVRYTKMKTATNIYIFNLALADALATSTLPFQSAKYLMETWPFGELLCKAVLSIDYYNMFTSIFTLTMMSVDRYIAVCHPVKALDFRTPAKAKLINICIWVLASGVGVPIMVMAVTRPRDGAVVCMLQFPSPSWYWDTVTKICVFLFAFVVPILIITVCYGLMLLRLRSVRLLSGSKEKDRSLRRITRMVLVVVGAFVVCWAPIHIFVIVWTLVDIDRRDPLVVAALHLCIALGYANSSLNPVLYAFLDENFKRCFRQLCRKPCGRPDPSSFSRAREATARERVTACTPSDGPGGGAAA

| SMILES | A1 radioligand binding inhibition (Human δ-opioid (DOP)) | A2 radioligand binding inhibition (Human κ-Opioid (KOP)) | A3 radioligand binding inhibition (Human Melanocortin (MC3)) | A4 radioligand binding inhibition (Human Melanocortin (MC4)) | A5 radioligand binding inhibition (Human melanocortin (MC5)) | A7 radioligand binding inhibition (Human μ-opioid (MOP)) | A8 radioligand binding inhibition (Human neurokinin (NK1)) | A9 radioligand binding inhibition [2] | A10 radioligand binding inhibition (Human opioid (ORL1)) | A11 radioligand binding inhibition (Mouse urotensin (mUR2)) | A1: inhibition of radioligand binding, human δ-opioid (DOP) (Human δ-opioid (DOP); [3H]-Bremazocine) | A2: inhibition of radioligand binding, human κ-opioid (KOP) (Human κ-Opioid (KOP); [3H]-Diprenorphine) | A3: inhibition of radioligand binding, human melanocortin (MC3) (Human Melanocortin (MC3); [125I]-NDP-αMSH) | A4: inhibition of radioligand binding, human melanocortin (MC4) (Human Melanocortin (MC4); [125I]-NDP-αMSH) | A5: inhibition of radioligand binding, human melanocortin (MC5) (Human melanocortin (MC5); [125I]-NDP-αMSH) | A6: inhibition of radioligand binding, human melanin-concentrating hormone (MCH1) ([1]; [125I]-S36057) | A7: inhibition of radioligand binding, human μ-opioid (MOP) (Human μ-opioid (MOP); [3H]-Naloxone) | A8: inhibition of radioligand binding, human neurokinin (NK1) (Human neurokinin (NK1); [125I]-Substance P) | A9: inhibition of radioligand binding, human neuropeptide Y (NPY-Y1) ([2]; [125I]-PYY) | A10: inhibition of radioligand binding, human opioid (ORL1) (Human opioid (ORL1); [125I]-Nociceptin) | further results |
| --- | --- | --- | --- | --- | --- | --- | --- | --- | --- | --- | --- | --- | --- | --- | --- | --- | --- | --- | --- | --- | --- |
| CO[C@H]1[C@H](O)[C@@H](COCc2ccc(-c3ccccc3)cc2)OC(OCCc2ccccc2)[C@@H]1NC(=O)CCCN (stereo partly shown) [compound 111] |  |  |  |  |  |  |  |  |  |  |  |  |  |  |  |  |  |  |  |  | A1 radioligand binding, percentage inhibition (Human δ-opioid (DOP); [3H]-Bremazocine): − (“−” indicates less than 50% inhibition at 10 μM); A2 radioligand binding, percentage inhibition (Human κ-Opioid (KOP); [3H]-Diprenorphine): − (“−” indicates less than 50% inhibition at 10 μM); A3 radioligand binding, percentage inhibition (Human Melanocortin (MC3); [125I]-NDP-αMSH): − (“−” indicates less than 50% inhibition at 10 μM); A4 radioligand binding, percentage inhibition (Human Melanocortin (MC4); [125I]-NDP-αMSH): − (“−” indicates less than 50% inhibition at 10 μM); A5 radioligand binding, percentage inhibition (Human melanocortin (MC5); [125I]-NDP-αMSH): − (“−” indicates less than 50% inhibition at 10 μM); A6 radioligand binding, percentage inhibition ([1]; [125I]-S36057): − (“−” indicates less than 50% inhibition at 10 μM); A7 radioligand binding, percentage inhibition (Human μ-opioid (MOP); [3H]-Naloxone): − (“−” indicates less than 50% inhibition at 10 μM); A8 radioligand binding, percentage inhibition (Human neurokinin (NK1); [125I]-Substance P): + (“+” indicates greater than 50% inhibition at 10 μM); A9 radioligand binding, percentage inhibition ([2]; [125I]-PYY): − (“−” indicates less than 50% inhibition at 10 μM); A10 radioligand binding, percentage inhibition (Human opioid (ORL1); [125I]-Nociceptin): − (“−” indicates less than 50% inhibition at 10 μM); A11 radioligand binding, percentage inhibition (Mouse urotensin (mUR2); [125I]-Urotensin II): − (“−” indicates less than 50% inhibition at 10 μM) |
| COC[C@H]1OC(OCc2ccc(-c3ccccc3)cc2)[C@H](NC(=O)CCNC(=N)N)[C@@H](OCc2ccc(Cl)cc2)[C@@H]1O (stereo partly shown) [compound 11] | + (“+” indicates greater than 50% inhibition at 10 μM) | + (“+” indicates greater than 50% inhibition at 10 μM) | − (“−” indicates less than 50% inhibition at 10 μM) | + (“+” indicates greater than 50% inhibition at 10 μM) | + (“+” indicates greater than 50% inhibition at 10 μM) | + (“+” indicates greater than 50% inhibition at 10 μM) | + (“+” indicates greater than 50% inhibition at 10 μM) | − (“−” indicates less than 50% inhibition at 10 μM) | − (“−” indicates less than 50% inhibition at 10 μM) | − (“−” indicates less than 50% inhibition at 10 μM) |  |  |  |  |  |  |  |  |  |  | A6 radioligand binding inhibition [1]: + (“+” indicates greater than 50% inhibition at 10 μM) |
| N=C(N)NCC(=O)N[C@H]1C(OCc2ccc(Cl)cc2)O[C@H](COCc2ccc3ccccc3c2)[C@@H](O)[C@@H]1OCc1ccc(-c2ccccc2)cc1 (stereo partly shown) [compound 517] |  |  |  |  |  |  |  |  |  |  | − (“−” indicates less than 50% inhibition at 10 μM) | + (“+” indicates greater than 50% inhibition at 10 μM) | + (“+” indicates greater than 50% inhibition at 10 μM) | + (“+” indicates greater than 50% inhibition at 10 μM) | + (“+” indicates greater than 50% inhibition at 10 μM) | + (“+” indicates greater than 50% inhibition at 10 μM) | − (“−” indicates less than 50% inhibition at 10 μM) | + (“+” indicates greater than 50% inhibition at 10 μM) | − (“−” indicates less than 50% inhibition at 10 μM) | − (“−” indicates less than 50% inhibition at 10 μM) | A11: inhibition of radioligand binding, mouse urotensin (mUR2) (Mouse urotensin (mUR2); [125I]-Urotensin II): − (“−” indicates less than 50% inhibition at 10 μM) |
| CSC1OC(COCc2cccc(N)c2)C(O)C(OCc2ccccc2)C1NC(=O)c1c[nH]c2ccccc12 (stereo not shown) [compound 326] |  |  |  |  |  |  |  |  |  |  | − (“−” indicates less than 50% inhibition at 10 μM) | − (“−” indicates less than 50% inhibition at 10 μM) | − (“−” indicates less than 50% inhibition at 10 μM) | − (“−” indicates less than 50% inhibition at 10 μM) | − (“−” indicates less than 50% inhibition at 10 μM) | − (“−” indicates less than 50% inhibition at 10 μM) | − (“−” indicates less than 50% inhibition at 10 μM) | + (“+” indicates greater than 50% inhibition at 10 μM) | − (“−” indicates less than 50% inhibition at 10 μM) | − (“−” indicates less than 50% inhibition at 10 μM) | A11: inhibition of radioligand binding, mouse urotensin (mUR2) (Mouse urotensin (mUR2); [125I]-Urotensin II): − (“−” indicates less than 50% inhibition at 10 μM) |
| COC[C@H]1OC(OCc2ccc(-c3ccccc3)cc2)[C@H](NC(=O)CCCNC(=N)N)[C@@H](OCc2ccccc2)[C@@H]1O (stereo partly shown) [compound 9] | − (“−” indicates less than 50% inhibition at 10 μM) | − (“−” indicates less than 50% inhibition at 10 μM) | − (“−” indicates less than 50% inhibition at 10 μM) | − (“−” indicates less than 50% inhibition at 10 μM) | − (“−” indicates less than 50% inhibition at 10 μM) | − (“−” indicates less than 50% inhibition at 10 μM) | + (“+” indicates greater than 50% inhibition at 10 μM) | − (“−” indicates less than 50% inhibition at 10 μM) | − (“−” indicates less than 50% inhibition at 10 μM) | − (“−” indicates less than 50% inhibition at 10 μM) |  |  |  |  |  |  |  |  |  |  | A6 radioligand binding inhibition ([1]; 10 µM): − (“−” indicates less than 50% inhibition at 10 μM) |
